Measurements: patent publication US6653529B2, “Use of the maize X112 mutant ahas 2 gene and imidazolinone herbicides for selection of transgenic monocots, maize, rice and wheat plants resistant to the imidazolinone herbicides” (BASF Aktiengesellschaft, priority 2000, dated 2003)

What was measured:
Type in all cases: in vivo
[1] = test system: rice plants (transgenic Lines 26 and 29; Nt control); assay: Greenhouse herbicide tests on rice; details: for effect on plant growth at 1× rates: post-emergence
Text: We evaluated the response of transgenic rice to PURSUIT® imazethapyr application in the greenhouse. In this experiment, we included 2 transgenic lines and their untransformed counterpart (Nt). The transgenic lines, designated as Line 26 and 29, were T3 progeny derived from previously identified homozygous resistant transgenic plants containing the maize XI12 ahas2 gene driven by its own promoter. All seeds were pre-germinated in water for 2-3 days then grown in a planting mixture consisting of 1:1 soil and MetroMix 360 (The Scotts Company, Marysville, Ohio 43040) in 6-inch pots (2 seeds per pot) in the greenhouse and sprayed with PURSUIT® imazethapyr at 63, 125, or 250 g ai/ha. For post-emergence application, the plants were sprayed 15 days after seeding, at which time most plants had 3 leaves. For pre-emergence treatment, PURSUIT® imazethapyr was sprayed one day after seeding. Each treatment contained 20 plants and, and 3 replicates per treatment. One set of materials was not sprayed and used as control. The plants were grown in the greenhouse and harvested at maturity. The amount of PURSUIT® imazethapyr applied in this study (63, 125, or 250 g ai/ha) was close to 1, 2 or 4× field application rate for imi-resistant corn (refer to Table 3) since PURSUIT® imazethapyr is not currently labeled for use in rice fields. A custom designed belt sprayer was operated as described (Newhouse et al. 1992) for all herbicide applications. Five plants from each treatment were randomly chosen and individually measured for morphological traits. Means and standard deviations were calculated over three replications. Plant heights were measured from the base of the plant to the tip of the flag leaf 93 days after herbicide applications (DAH) and number of tillers per plant were counted 102-103 DAH. Data on number of panicles per plant and yield were collected after plants were harvested.
(§1) A total of 9 herbicides, 5 imidazolinones, two rice herbicides and ACCENT® (nicosulfuron) and CLASSIC® (clorimuron-ethyl) were applied in this study. Materials and methods were basically the same as described above, except that instead of 6″ pots, flats with 18 (3″×3″ per cell) cells were used, and 10-12 seeds were planted to one 3″×3″ cell. Ten plants were maintained in one cell in the post-emergence application. Each herbicide was sprayed at 4 different rates, 1, 2, 4, and 6×, as either pre or post-emergence applications with three replications per treatment. The name and amount of herbicide applied in this experiment and information relevant to their commercial applications are listed in Table 3. For simplicity and convenience, the lowest concentration used is referred as 1× rate, 2, 4 and 6× rates can be calculated as multiples of 1×.
(§2) To monitor plant response to various herbicides, data on fresh weight was collected. For pre-emergence applications, all plants from one cell were harvested 32 days after spraying (36-day old plants) and weighed. Twenty-nine days after herbicide application, 5 plants (44-day old plants) from each cell in the post-emergence application, were cut and weighed individually. Mean fresh weight for each treatment was calculated over three replications. The remaining 5 plants were grown in the greenhouse to maturity at which time, panicles of 3 plants were collected, and number of filled seeds and number of total kernels were counted to determine percentage of seed set.

[2] = test system: untransformed Nt rice plants; assay: Response of rice plants to various herbicides, seed set in greenhouse; details: post-emergence, 1× g ai/ha: PURSUIT 62.5, CADRE 32, ARSENAL 24, RAPTOR 32, SCEPTER 125, ACCENT 35, CLASSIC 5, AC322,140 20, LONDAX 68
Text: as §1, §2

transgenic rice Line 29 = assay: as above; details: post-emergence, 1× g ai/ha: PURSUIT 62.5, CADRE 32, ARSENAL 24, RAPTOR 32, SCEPTER 125, ACCENT 35, CLASSIC 5, AC322,140 20, LONDAX 68
Text: as §1, §2

transgenic rice Line 26 = assay: as above; details: post-emergence, 1× g ai/ha: PURSUIT 62.5, CADRE 32, ARSENAL 24, RAPTOR 32, SCEPTER 125, ACCENT 35, CLASSIC 5, AC322,140 20, LONDAX 68
Text: as §1, §2

| SMILES | % seed-set ([2]; 1× rate) [%] | No. filled seeds/3 panicles ([2]; 1× rate) | Total No. of kernels/3 panicles ([2]; 1× rate) | % seed-set ([2]; 2× rate) [%] | No. filled seeds/3 panicles ([2]; 2× rate) | Total No. of kernels/3 panicles ([2]; 2× rate) | % seed-set ([2]; 4× rate) [%] | No. filled seeds/3 panicles ([2]; 4× rate) | Total No. of kernels/3 panicles ([2]; 4× rate) | % seed-set ([2]; 6× rate) [%] | No. filled seeds/3 panicles ([2]; 6× rate) | Total No. of kernels/3 panicles ([2]; 6× rate) | % seed-set (transgenic rice Line 29; 1× rate) [%] | No. filled seeds/3 panicles (transgenic rice Line 29; 1× rate) | Total No. of kernels/3 panicles (transgenic rice Line 29; 1× rate) | % seed-set (transgenic rice Line 29; 2× rate) [%] | No. filled seeds/3 panicles (transgenic rice Line 29; 2× rate) | Total No. of kernels/3 panicles (transgenic rice Line 29; 2× rate) | % seed-set (transgenic rice Line 29; 4× rate) [%] | No. filled seeds/3 panicles (transgenic rice Line 29; 4× rate) | further results |
| --- | --- | --- | --- | --- | --- | --- | --- | --- | --- | --- | --- | --- | --- | --- | --- | --- | --- | --- | --- | --- | --- |
| COc1cc(OC)nc(NC(=O)NS(=O)(=O)Nc2ccccc2C(=O)C2CC2)n1 [AC 322,140, cyclosulfamuron] | 93 | 175 | 187 | 93 | 158 | 171 | 95 | 83 | 86 | 98 | 118 | 121 | 91 | 150 | 166 | 92 | 172 | 187 | 80 | 129 | effect on growth of all plants treated ([1]; transgenic and control plants): minimal effect; Total No. of kernels/3 panicles (transgenic rice Line 29; 4× rate): 160; % seed-set (transgenic rice Line 29; 6× rate): 87%; No. filled seeds/3 panicles (transgenic rice Line 29; 6× rate): 134; Total No. of kernels/3 panicles (transgenic rice Line 29; 6× rate): 154; % seed-set (transgenic rice Line 26; 1× rate): 90%; No. filled seeds/3 panicles (transgenic rice Line 26; 1× rate): 144; Total No. of kernels/3 panicles (transgenic rice Line 26; 1× rate): 160; % seed-set (transgenic rice Line 26; 2× rate): 94%; No. filled seeds/3 panicles (transgenic rice Line 26; 2× rate): 158; Total No. of kernels/3 panicles (transgenic rice Line 26; 2× rate): 168; % seed-set (transgenic rice Line 26; 4× rate): 91%; No. filled seeds/3 panicles (transgenic rice Line 26; 4× rate): 166; Total No. of kernels/3 panicles (transgenic rice Line 26; 4× rate): 182; % seed-set (transgenic rice Line 26; 6× rate): 85%; No. filled seeds/3 panicles (transgenic rice Line 26; 6× rate): 134; Total No. of kernels/3 panicles (transgenic rice Line 26; 6× rate): 158 |
| COc1cc(OC)nc(NC(=O)NS(=O)(=O)c2ncccc2C(=O)N(C)C)n1 [ACCENT ®, nicosulfuron] | 3 | 6 | 24 | 0 | 0 | 0 | 0 | 0 | 0 | 0 | 0 | 0 | 82 | 94 | 114 | 10 | 24 | 48 | 0 | 0 | effect on plant growth at 1× rates [1]: greatly affected plant growth; Total No. of kernels/3 panicles (transgenic rice Line 29; 4× rate): 0; % seed-set (transgenic rice Line 29; 6× rate): 0%; No. filled seeds/3 panicles (transgenic rice Line 29; 6× rate): 0; Total No. of kernels/3 panicles (transgenic rice Line 29; 6× rate): 0; % seed-set (transgenic rice Line 26; 1× rate): 34%; No. filled seeds/3 panicles (transgenic rice Line 26; 1× rate): 82; Total No. of kernels/3 panicles (transgenic rice Line 26; 1× rate): 145; % seed-set (transgenic rice Line 26; 2× rate): 0%; No. filled seeds/3 panicles (transgenic rice Line 26; 2× rate): 0; Total No. of kernels/3 panicles (transgenic rice Line 26; 2× rate): 0; % seed-set (transgenic rice Line 26; 4× rate): 0%; No. filled seeds/3 panicles (transgenic rice Line 26; 4× rate): 0; Total No. of kernels/3 panicles (transgenic rice Line 26; 4× rate): 0; % seed-set (transgenic rice Line 26; 6× rate): 0%; No. filled seeds/3 panicles (transgenic rice Line 26; 6× rate): 0; Total No. of kernels/3 panicles (transgenic rice Line 26; 6× rate): 0 |
| CCOC(=O)c1ccccc1S(=O)(=O)NC(=O)Nc1nc(Cl)cc(OC)n1 [CLASSIC ®, chlorimuron-ethyl] | 87 | 87 | 99 | 92 | 90 | 97 | 0 | 0 | 0 | 0 | 0 | 0 | 88 | 115 | 130 | 85 | 112 | 132 | 37 | 35 | effect on plant growth at 1× rates [1]: greatly affected plant growth; Total No. of kernels/3 panicles (transgenic rice Line 29; 4× rate): 45; % seed-set (transgenic rice Line 29; 6× rate): 4%; No. filled seeds/3 panicles (transgenic rice Line 29; 6× rate): 5; Total No. of kernels/3 panicles (transgenic rice Line 29; 6× rate): 14; % seed-set (transgenic rice Line 26; 1× rate): 83%; No. filled seeds/3 panicles (transgenic rice Line 26; 1× rate): 95; Total No. of kernels/3 panicles (transgenic rice Line 26; 1× rate): 114; % seed-set (transgenic rice Line 26; 2× rate): 93%; No. filled seeds/3 panicles (transgenic rice Line 26; 2× rate): 100; Total No. of kernels/3 panicles (transgenic rice Line 26; 2× rate): 108; % seed-set (transgenic rice Line 26; 4× rate): 28%; No. filled seeds/3 panicles (transgenic rice Line 26; 4× rate): 26; Total No. of kernels/3 panicles (transgenic rice Line 26; 4× rate): 65; % seed-set (transgenic rice Line 26; 6× rate): 20%; No. filled seeds/3 panicles (transgenic rice Line 26; 6× rate): 10; Total No. of kernels/3 panicles (transgenic rice Line 26; 6× rate): 18 |
